Source: PubChem BioAssay AID256 (DTP/NCI, 2004)
Toxic doses and inconclusive results are not listed. Rule for the calls: active = survival T/C of 150% or more; inactive = T/C below 125% in these data.

Test system: CD2F1 mice, L1210 leukemia ip, survival T/C
Experiment: NCI In Vivo Anticancer Drug Screen. Data for tumor model L1210 Leukemia (intraperitoneal) in CD2F1 (CDF1) mice
Conditions: higher = longer survival
How it was run: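 Activity against a transplanted murine tumor was judged by comparing the compound group with a vehicle group. The outcome in the treated animals was divided by that in the controls.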

[1] = endpoint: mean survival time, dose: 50.0 mg/kg/injection, schedule: Q01DX009 (ip), vehicle: saline
[2] = endpoint: mean survival time, dose: 100.0 mg/kg/injection, schedule: Q01DX009 (ip), vehicle: saline
[3] = endpoint: mean survival time, dose: 200.0 mg/kg/injection, schedule: Q01DX009 (ip), vehicle: saline
[4] = endpoint: mean survival time, dose: 400.0 mg/kg/injection, schedule: Q01DX009 (ip), vehicle: saline
[5] = endpoint: mean survival time, dose: 100.0 mg/kg/injection, schedule: Q04DX003 (ip), vehicle: saline with Tween-80
[6] = endpoint: mean survival time, dose: 200.0 mg/kg/injection, schedule: Q04DX003 (ip), vehicle: saline with Tween-80
[7] = endpoint: mean survival time, dose: 400.0 mg/kg/injection, schedule: Q04DX003 (ip), vehicle: saline with Tween-80
[8] = endpoint: mean survival time, dose: 100.0 mg/kg/injection, schedule: Q04DX002 (ip), vehicle: Klucel (hydroxypropylcellulose) (HPC)
[9] = endpoint: mean survival time, dose: 200.0 mg/kg/injection, schedule: Q04DX002 (ip), vehicle: Klucel (hydroxypropylcellulose) (HPC)
[10] = endpoint: mean survival time, dose: 400.0 mg/kg/injection, schedule: Q04DX002 (ip), vehicle: Klucel (hydroxypropylcellulose) (HPC)
[11] = endpoint: mean survival time, dose: 100.0 mg/kg/injection, schedule: Q01DX001 (ip), vehicle: saline with Tween-80
[12] = endpoint: mean survival time, dose: 200.0 mg/kg/injection, schedule: Q01DX001 (ip), vehicle: saline with Tween-80
[13] = endpoint: mean survival time, dose: 100.0 mg/kg/injection, schedule: Q01DX009 (ip), vehicle: saline with Tween-80
[14] = endpoint: mean survival time, dose: 200.0 mg/kg/injection, schedule: Q01DX009 (ip), vehicle: saline with Tween-80
[15] = endpoint: mean survival time, dose: 400.0 mg/kg/injection, schedule: Q01DX009 (ip), vehicle: saline with Tween-80

Measured: T/C

NC(=O)CC(N)CO (stereo not drawn)
inactive: [1] 93 % of control | [2] 98 % of control | [3] 95 % of control | [4] 98 % of control

CC(=O)OCc1cccnc1
inactive: [2] 96 % of control | [3] 94 % of control | [4] 86 % of control

COc1ccc(NC(=O)Nc2ccccc2C(F)(F)F)cc1
inactive: [5] 98 % of control | [6] 96 % of control | [7] 90 % of control

CSC(=S)N/N=C(\C)c1ccccn1
inactive: endpoint: mean survival time, dose: 25.0 mg/kg/injection, schedule: Q04DX003 (ip), vehicle: saline with Tween-80 98 % of control | endpoint: mean survival time, dose: 50.0 mg/kg/injection, schedule: Q04DX003 (ip), vehicle: saline with Tween-80 107 % of control | [5] 110 % of control

CC1=CCCC2C1(C)CCC(C)C2(C)Cc1cc(O)ccc1O (stereo not drawn)
inactive: endpoint: median survival time, dose: 6.25 mg/kg/injection, schedule: Q01DX005 (ip), vehicle: Klucel (hydroxypropylcellulose) (HPC) 107 % of control | endpoint: median survival time, dose: 12.5 mg/kg/injection, schedule: Q01DX005 (ip), vehicle: Klucel (hydroxypropylcellulose) (HPC) 103 % of control | endpoint: median survival time, dose: 25.0 mg/kg/injection, schedule: Q01DX005 (ip), vehicle: Klucel (hydroxypropylcellulose) (HPC) 98 % of control | endpoint: median survival time, dose: 50.0 mg/kg/injection, schedule: Q01DX005 (ip), vehicle: Klucel (hydroxypropylcellulose) (HPC) 102 % of control | endpoint: median survival time, dose: 100.0 mg/kg/injection, schedule: Q01DX005 (ip), vehicle: Klucel (hydroxypropylcellulose) (HPC) 97 % of control

CCCc1ccc(NS(=O)(=O)c2ccc(C)cc2)cc1
inactive: [8] 98 % of control | [9] 103 % of control | [10] 92 % of control

CC(=O)OCC(=O)C1CCC2C3CCC4CC(OC(C)=O)CCC4(C)C3CCC12C (stereo not drawn)
inactive: [11] 91 % of control | [12] 91 % of control | endpoint: mean survival time, dose: 400.0 mg/kg/injection, schedule: Q01DX001 (ip), vehicle: saline with Tween-80 105 % of control

O=C1c2ccccc2C(=O)N1CC(O)COc1ccccc1[N+](=O)[O-] (stereo not drawn)
inactive: endpoint: mean survival time, dose: 100.0 mg/kg/injection, schedule: Q04DX002 (ip), vehicle: saline with Tween-80 88 % of control | endpoint: mean survival time, dose: 200.0 mg/kg/injection, schedule: Q04DX002 (ip), vehicle: saline with Tween-80 100 % of control

S=C(S)Nc1ccc(Cc2ccc(NC(=S)S)cc2)cc1
inactive: [13] 98 % of control | [14] 96 % of control | [15] 93 % of control

CCCCC1(C(C)CC(C)(C)C)NC(C)(C)CC(C)O1 (stereo not drawn)
inactive: endpoint: mean survival time, dose: 25.0 mg/kg/injection, schedule: Q04DX002 (ip), vehicle: saline 104 % of control | endpoint: mean survival time, dose: 50.0 mg/kg/injection, schedule: Q04DX002 (ip), vehicle: saline 101 % of control | endpoint: mean survival time, dose: 100.0 mg/kg/injection, schedule: Q04DX002 (ip), vehicle: saline 89 % of control | [5] 101 % of control

Cc1ccc(C(=O)C[n+]2cccc3ccccc32)c(C)c1
inactive: endpoint: mean survival time, dose: 6.25 mg/kg/injection, schedule: Q01DX009 (ip), vehicle: saline with Tween-80 101 % of control | endpoint: mean survival time, dose: 12.5 mg/kg/injection, schedule: Q01DX009 (ip), vehicle: saline with Tween-80 94 % of control | endpoint: mean survival time, dose: 25.0 mg/kg/injection, schedule: Q01DX009 (ip), vehicle: saline with Tween-80 95 % of control

O=[N+]([O-])c1cc(Cl)c(Cl)cc1[N+](=O)[O-]
inactive: [11] 90 % of control | [12] 90 % of control

ClCCn1c(CCl)nc2ccccc21
inactive: endpoint: mean survival time, dose: 10.0 mg/kg/injection, schedule: Q01DX009 (ip), vehicle: saline 98 % of control | endpoint: mean survival time, dose: 20.0 mg/kg/injection, schedule: Q01DX009 (ip), vehicle: saline 94 % of control

CCCCCCSC(=O)NC(C)=O
inactive: [13] 92 % of control | [5] 91 % of control | [14] 94 % of control | [6] 94 % of control | [15] 106 % of control | [7] 94 % of control

CC(C)c1cc(O)ccc1N(C)C (tested in a mixture with another compound)
inactive: endpoint: mean survival time, dose: 32.0 micrograms/kg/injection, schedule: Q04DX003 (ip), vehicle: saline 102 % of control | endpoint: mean survival time, dose: 63.0 micrograms/kg/injection, schedule: Q01DX001 (ip), vehicle: saline 98 % of control | endpoint: mean survival time, dose: 63.0 micrograms/kg/injection, schedule: Q04DX003 (ip), vehicle: saline 101 % of control | endpoint: mean survival time, dose: 125.0 micrograms/kg/injection, schedule: Q01DX001 (ip), vehicle: saline 98 % of control | endpoint: mean survival time, dose: 125.0 micrograms/kg/injection, schedule: Q04DX003 (ip), vehicle: saline 90 % of control

CCCCNC(=O)Nc1ccc(C(=O)OCC(C)C)cc1
inactive: [13] 94 % of control | [5] 108 % of control | [14] 91 % of control | [6] 94 % of control | [15] 90 % of control | [7] 90 % of control

CN=Cc1ccccc1
inactive: endpoint: mean survival time, dose: 25.0 mg/kg/injection, schedule: Q01DX009 (ip), vehicle: saline 97 % of control | [1] 97 % of control | [2] 100 % of control

Nc1cccc(/C=C/c2cccc([N+](=O)[O-])c2)c1
inactive: [8] 98 % of control | [9] 103 % of control | [10] 103 % of control

COC1OC(COC(C)=O)C(n2cnc3c2c(=O)n(C)c(=O)n3C)C=C1NC(C)=O (stereo not drawn)
inactive: endpoint: mean survival time, dose: 12.5 mg/kg/injection, schedule: Q01DX005 (ip), vehicle: distilled water + Tween-80 94 % of control | endpoint: mean survival time, dose: 25.0 mg/kg/injection, schedule: Q01DX005 (ip), vehicle: distilled water + Tween-80 96 % of control | endpoint: mean survival time, dose: 50.0 mg/kg/injection, schedule: Q01DX005 (ip), vehicle: distilled water + Tween-80 90 % of control | endpoint: mean survival time, dose: 100.0 mg/kg/injection, schedule: Q01DX005 (ip), vehicle: distilled water + Tween-80 94 % of control | endpoint: mean survival time, dose: 200.0 mg/kg/injection, schedule: Q01DX005 (ip), vehicle: distilled water + Tween-80 108 % of control

CCCC(O)CNCc1ccc2c3c(cccc13)CC2 (stereo not drawn)
inactive: endpoint: mean survival time, dose: 25.0 mg/kg/injection, schedule: Q01DX001 (ip), vehicle: Klucel (hydroxypropylcellulose) (HPC) 93 % of control | endpoint: mean survival time, dose: 50.0 mg/kg/injection, schedule: Q01DX001 (ip), vehicle: Klucel (hydroxypropylcellulose) (HPC) 101 % of control

O=CNNC(=S)Nc1ccccc1
inactive: endpoint: mean survival time, dose: 50.0 mg/kg/injection, schedule: Q01DX009 (ip), vehicle: saline with Tween-80 100 % of control | [13] 96 % of control | [14] 96 % of control

CC(C)(C)C(=O)O
inactive: [2] 107 % of control | endpoint: mean survival time, dose: 100.0 mg/kg/injection, schedule: Q04DX003 (ip), vehicle: saline 89 % of control | [3] 94 % of control | endpoint: mean survival time, dose: 200.0 mg/kg/injection, schedule: Q04DX003 (ip), vehicle: saline 92 % of control | endpoint: mean survival time, dose: 400.0 mg/kg/injection, schedule: Q04DX003 (ip), vehicle: saline 93 % of control
